pIC50: −log10 of the molar value.
assay: Inhibition of hypoxia-induced HIF1alpha protein accumulation in human Hep3B cells treated for 30 mins measured after 12 hrs by Western blot analysis

Compound | pIC50
CC(C)=CCC/C(C)=C/Cc1c(O)ccc2cc(-c3cc(O)cc(O)c3CC=C(C)C)oc12 [mulberrofuran D] | 5.39
CC(C)=CCC/C(C)=C\CC/C(C)=C\Cc1c(O)cc(O)cc1-c1cc2ccc(O)cc2o1 [mulberrofuran W] | 5.44
Oc1cc(O)cc(-c2cc3ccc(O)cc3o2)c1 [moracin M] | < 4.30
CC(C)=CCC/C(C)=C/Cc1c(O)cc(O)cc1-c1cc2ccc(O)cc2o1 [albafuran A] | 5.45
COc1c(O)cc2oc(-c3cc(O)cc(O)c3)cc2c1CC(=O)C(C)C [Moracin Q] | 5.23

The next molecules have a higher pIC50 than those just listed; values first:

pIC50 | Compound
5.59 | CC1=C[C@H]2c3c(O)cc(-c4cc5ccc(O)cc5o4)cc3O[C@@]3(c4ccc(O)cc4O)Oc4cc(O)ccc4[C@H](C1)[C@@H]23 [CHEBI:2544]
5.90 | CC(C)=CC[C@]12Oc3cc(O)c([C@H]4C=C(C)C[C@H](c5ccc(O)cc5O)[C@H]4C(=O)c4ccc(O)cc4O)c(O)c3C(=O)[C@@]1(O)Oc1cc(O)ccc12 [sanggenon C]
5.99 | CC(C)=CC[C@@]12Oc3cc(O)c([C@H]4C=C(C)C[C@H](c5ccc(O)cc5O)[C@H]4C(=O)c4ccc(O)cc4O)c(O)c3C(=O)[C@]1(O)Oc1cc(O)ccc12 [Sanggenon O]
6.85 | C[C@@]12C=C(c3c(O)cc(-c4cc5ccc(O)cc5o4)cc3O)C[C@@H](C1)c1ccc(O)cc1O2 [Mulberrofuran H]
9.19 | CC1(C)Oc2cc3oc(-c4cc(O)cc(O)c4)cc3cc2C[C@H]1O [(-)-Moracin P]
9.85 | CC(C)(O)C1Cc2cc3cc(-c4cc(O)cc(O)c4)oc3cc2O1 (stereo unspecified) [moracin O]
